One series deals with MCF-7 cells. The series is described as follows: Clonogenic assay with X-ray irradiation. Type of series: cell-based. How it is done:
MCF-7 cells were plated at a rate of 50,000 cells/ml in a 24-well cell culture plate. They were then incubated with DOX, DOX-DNA, and DOX-DNA-AuNPs for 12 hours, and then irritated with 0, 2, 5, and 10 Gy X-rays. The cells were then counted, using a hemocytometer, and replated in a 6 well plate at 1000 cell per well for the 0 and 2 Gy dose; 3000 cells for the 5 Gy; and 9000 for the 10 Gy. The plates were incubated for 14 days, and then fixed with gluteraldhyde and stained with crystal violet. The colonies with 50 or more cells were then counted.

Series [1] can be described thus: X-ray radiation cleavage of 6-FAM labelled DNA, fluorescence spectroscopy, with DMSO as hydroxyl radical scavenger. Format: physicochemical. The note with it: 100 Gy. How it is done:
X-ray radiation studies were performed, using DMSO as a hydroxyl radical scavenger at concentrations from 0-100 mM. In a 24-well plate, 400 μL of purified 6-FAM-DNA-AuNPs were mixed with 400 μL of 2×DMSO solution, or PBS and the samples were irradiated with X-rays. After radiation, the AuNPs were removed from solution by centrifugation (13,000 rpm, 15 min) and supernatant fluorescence was measured (Excitation at 490 nm and Emission at 514 nm). Non-radiated controls were identically prepared and measured.
6-FAM has a high fluorescence yield (>80%) and high quenching when attached to AuNPs. The cleavage via X-ray irradiation was studied with optical fluorescence spectroscopy.
Black Hole Quencher®-1 DNA, coupled to 6-FAM, was purchased from IDT (6-FAM-5′-[…]-3′-BHQ-1®). It was irradiated with DMSO at concentrations from 0-100 mM in 24 well plates, and the fluorescence from cleaved DNA was measured. […] X-ray radiated and cleaved 6-FAM molecules were incubated with MCF-7 cells for 4 hours.

{6-FAM} = 6-carboxyfluorescein dye; {BHQ-1} = Black Hole Quencher-1

As to `COc1cccc2c1C(=O)c1c(O)c3c(c(O)c1C2=O)C[C@@](O)(C(=O)CO)C[C@@H]3O[C@H]1C[C@H](N)[C@H](O)[C@H](C)O1` [DOX, doxorubicin], the Measured cell survivability was 0.81 ± .01 with MCF-7 cells (0 Gy), 0.61 ± .05 in the series on MCF-7 cells (2 Gy), 0.28 ± .02 in the series with MCF-7 cells (5 Gy) and 0.07 ± .002 in the series with MCF-7 cells (10 Gy). The “Survivability of MCF-7 cells” value with MCF-7 cells (DOX alone, no radiation) was 80%. Moreover, the “Toxicity to MCF-7 cells” value with MCF-7 cells (DOX alone, no radiation, 24 million free DOX in the cell) is “about 20%”.
With “6-FAM-5′-TTAGGGTTAGGG-3′-BHQ-1® (DNA, 5' {6-FAM}, 3' {BHQ-1}, backbone not given here) [Q-DNA-6-FAM, Black Hole Quencher-1 DNA coupled to 6-FAM, purchased from IDT]”, the “Effect of DMSO (hydroxyl radical scavenger) on cleavage / fluorescence” value in series [1] (DMSO up to 100 mM) was “significantly reduced the fluorescence”. For the same compound, in series [1] (zero DMSO), the “Cleavage after X-ray radiation” value was 25%. In series [1] (zero DMSO, mixture with AuNPs, no covalent conjugation), the “Cleavage (fluorescence) after X-ray radiation in the presence of AuNPs” value amounted to 4%.

Values taken from US9993553B2, “Methods and compositions for targeted release of molecules from nanoscale carriers” (The Regents of the University of California, priority 2013, dated 2018).
